Measured values taken from BigSolDB 2.1.

O=[N+]([O-])c1cc(F)c(F)cc1[N+](=O)[O-]
solubility (mole fraction)
Settings	293.15 K	298.15 K	303.15 K	308.15 K	313.15 K	318.15 K	323.15 K	328.15 K	333.15 K
in 1,2-dichloroethane	0.000981	0.00112	0.00128	0.00171	0.00229	0.00314	0.00416	0.00553	0.00752
in benzene	0.00143	0.00152	0.00173	0.00216	0.00286	0.00384	0.00499	0.00647	0.0086
in chloroform	0.000875	0.000957	0.00111	0.00156	0.00237	0.00339	0.00456	0.00611	–
in ethanol	0.00011	0.00014	0.000166	0.000246	0.000339	0.00047	0.000662	0.000906	0.00121
in ethyl acetate	0.0019	0.00215	0.00241	0.0028	0.00342	0.00433	0.00554	0.00735	0.00951
in ethyl formate	0.00271	0.00284	0.00303	0.00339	0.00402	0.00493	0.00613	0.00775	0.01
in isopropanol	3.1e-05	5e-05	6.4e-05	8.9e-05	0.000123	0.000164	0.000215	0.000296	0.00038
in m-xylene	0.00176	0.00206	0.00248	0.00303	0.00368	0.00444	0.00531	0.0062	0.00722
in mesitylene	0.00238	0.00259	0.00279	0.00309	0.00348	0.00397	0.00459	0.0055	0.00652
in methanol	0.00019	0.000263	0.000324	0.000401	0.000504	0.000632	0.000774	0.000956	0.00121
in n-butanol	3.8e-05	6e-05	9.5e-05	0.000142	0.000198	0.000278	0.000384	0.000546	0.000785
in n-propanol	4.5e-05	6.1e-05	8.5e-05	0.00012	0.000186	0.000278	0.000413	0.000595	0.00083
in o-xylene	0.00213	0.00236	0.00277	0.00327	0.00377	0.00441	0.00513	0.00598	0.00701
in p-xylene	0.00172	0.00199	0.00228	0.00267	0.00323	0.00395	0.00494	0.00647	0.0085
in tetrachloromethane	–	2.2e-05	4.7e-05	9.5e-05	0.000168	0.000276	0.000426	0.000614	0.000854
in toluene	0.00135	0.00154	0.00201	0.00268	0.00349	0.00448	0.00551	0.00669	0.00781
